*1 amine or outer side, *2 acyl side, *3 side chain or, on linkers, in order; H or OH if unused. Where a SMILES comes first, the peptide text is derived from it. Bridges are numbered along the chain shown (N, C = ends). Roman numbers before positions name the chains, in order. [ ]: non-standard residue; d: D form. hNle(7-SH) = O=C([C@H](CCCCCS[*:3])N[*:1])[*:2]; Gly((CH2)5SH) = N[C@@H](CCCCCS)C(=O)O; Pip = O=C(O)[C@@H]1CCCCN1; dPip = O=C(O)[C@H]1CCCCN1
Tests used:
human HDAC1 = target: T1, human HDAC1 (Homo sapiens, UniProt Q13547); test: In vitro HDAC inhibition activity, [3H]-acetylated histone substrate, HDAC1; format: biochemical
T1 construct: FLAG; made in house; host or cells: 293T cells (transient transfection, anti-FLAG immunoprecipitation, FLAG peptide elution)
T1 sequence (Q13547 whole entry): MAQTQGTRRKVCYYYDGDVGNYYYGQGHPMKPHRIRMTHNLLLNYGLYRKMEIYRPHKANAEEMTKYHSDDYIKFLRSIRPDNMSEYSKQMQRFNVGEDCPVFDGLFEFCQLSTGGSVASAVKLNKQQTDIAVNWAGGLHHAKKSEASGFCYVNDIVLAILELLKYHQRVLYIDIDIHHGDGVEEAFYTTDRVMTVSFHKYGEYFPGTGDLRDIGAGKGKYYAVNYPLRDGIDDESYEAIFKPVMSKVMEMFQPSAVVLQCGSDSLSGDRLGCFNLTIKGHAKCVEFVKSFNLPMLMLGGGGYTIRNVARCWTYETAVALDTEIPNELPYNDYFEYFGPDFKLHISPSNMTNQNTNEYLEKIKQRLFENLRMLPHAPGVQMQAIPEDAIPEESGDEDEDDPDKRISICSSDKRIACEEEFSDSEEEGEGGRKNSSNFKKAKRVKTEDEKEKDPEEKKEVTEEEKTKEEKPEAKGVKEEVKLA
Method: (§1) To measure HDAC inhibition activity, an HDAC solution was prepared as described below. 1×10^7 of 293T cells were plated on to a 100-mm dish and, after 24 hours, transfected with vectors (1 μg) expressing human HDAC1 and HDAC4 or mouse HDAC6, using LipofectAmine 2000 reagent (Life Technologies, Inc. Gaithersburg, Md.). […] The vectors were introduced for five hours in OPTI-MEM. The medium was then replaced with Dulbecco's modified Eagle's medium (DMEM), and incubated for 19 hours. The cells were washed with PBS, suspended in lysis buffer (50 mM Tris-HCl (pH7.5), 120 mM NaCl, 5 mM EDTA, and 0.5% Nonidet P-40), and sonicated. The supernatant was collected by centrifugation and nonspecific protein was removed using Protein A/G plus agarose beads (Santa Cruz Biotechnologies, Inc.). Anti-FLAG M2 antibodies (Sigma-Aldrich, Inc.) were added to the supernatant of cells expressing HDAC1 or HDAC4. Anti-HA antibodies (clone 3F10, Roche Molecular Biochemicals) were added to the supernatant of cells expressing HDAC6. Reaction in the respective mixtures was carried out at 4° C. for one hour. The resulting reaction mixtures were independently mixed with agarose beads and further reacted at 4° C. for one hour. The agarose beads were washed three times with lysis buffer and then washed once with HD buffer (20 mM Tris-HCl (pH8.0), 150 mM NaCl, 10% glycerol, and a complete protease inhibitor cocktail (Boehringer Mannheim, Germany)). […] The HDAC reaction solution was used for determining HDAC inhibition activity as shown below.
(§2) In vitro HDAC inhibition activity was evaluated as follows: A test compound was dissolved in DMSO and adjusted to 10 mM. This was used as an inhibitor stock solution. […] These reactions were stopped by adding 10 μl HCl. The [^3H] acetic acid excised by the enzyme reaction was extracted with ethyl acetate and subjected to radioactive dose measurement. As a negative control, the same procedure was carried out in which no inhibitor was added to the reaction system. The inhibition activity was expressed as a 50% inhibition concentration (“IC50 (nM)”) of the HDAC activity in the negative control (Tables 1 to 4).

[1] = tested on: human wild-type p21 promoter; test: p21 promoter-inducing activity (luciferase) in MFLL-9 cells; format: cell-based
Method: The HDAC inhibition activity in vivo was measured using p21 promoter-inducing activity as an index, as shown below. The MFLL-9 cells employed for the experiments stably maintained fusion genes of human wild-type p21 promoter and luciferase (Dr. B. Vogelstaein). Using phenol red-free DMEM medium comprising 10% FBS, cultivation was carried out in a steam-saturated incubator at 37° C. with 5% carbon dioxide. The MFLL-9 cells were plated at a density of 85,000 cells/well on a 96-well microtiter plate, each in 99 μl of the above-mentioned medium. These were then cultivated for six hours. One μl of test compound solution was added to each well, which was then cultured for another 18 hours.
The intensity of luminescence caused by the product of the enzyme reaction for intracellular luciferase expression was measured using Luc Lite (Packard BioScience Company). A group in which test compounds were not added was used as a negative control group. The values measured for this group were used as a standard. The activities for each concentration of added test compound were expressed relative to the above-mentioned standard value, 1.

human HDAC4 = target: T2, human HDAC4 (Homo sapiens, UniProt P56524); test: In vitro HDAC inhibition activity, [3H]-acetylated histone substrate, HDAC4; format: biochemical
T2 construct: FLAG; made in house; host or cells: 293T cells (transient transfection, anti-FLAG immunoprecipitation, FLAG peptide elution)
T2 sequence (O15379 whole entry partner): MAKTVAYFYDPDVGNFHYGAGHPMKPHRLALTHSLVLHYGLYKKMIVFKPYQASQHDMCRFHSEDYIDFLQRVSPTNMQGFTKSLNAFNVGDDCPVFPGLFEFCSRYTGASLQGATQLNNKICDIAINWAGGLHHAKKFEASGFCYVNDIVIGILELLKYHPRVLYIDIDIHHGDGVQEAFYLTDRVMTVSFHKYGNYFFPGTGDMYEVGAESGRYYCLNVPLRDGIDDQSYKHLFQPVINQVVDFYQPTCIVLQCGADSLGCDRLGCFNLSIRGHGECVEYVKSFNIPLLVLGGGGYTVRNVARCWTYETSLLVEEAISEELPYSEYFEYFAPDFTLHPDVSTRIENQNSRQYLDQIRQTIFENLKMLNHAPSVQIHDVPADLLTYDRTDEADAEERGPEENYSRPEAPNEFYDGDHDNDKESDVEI
T2 sequence (P56524 whole entry): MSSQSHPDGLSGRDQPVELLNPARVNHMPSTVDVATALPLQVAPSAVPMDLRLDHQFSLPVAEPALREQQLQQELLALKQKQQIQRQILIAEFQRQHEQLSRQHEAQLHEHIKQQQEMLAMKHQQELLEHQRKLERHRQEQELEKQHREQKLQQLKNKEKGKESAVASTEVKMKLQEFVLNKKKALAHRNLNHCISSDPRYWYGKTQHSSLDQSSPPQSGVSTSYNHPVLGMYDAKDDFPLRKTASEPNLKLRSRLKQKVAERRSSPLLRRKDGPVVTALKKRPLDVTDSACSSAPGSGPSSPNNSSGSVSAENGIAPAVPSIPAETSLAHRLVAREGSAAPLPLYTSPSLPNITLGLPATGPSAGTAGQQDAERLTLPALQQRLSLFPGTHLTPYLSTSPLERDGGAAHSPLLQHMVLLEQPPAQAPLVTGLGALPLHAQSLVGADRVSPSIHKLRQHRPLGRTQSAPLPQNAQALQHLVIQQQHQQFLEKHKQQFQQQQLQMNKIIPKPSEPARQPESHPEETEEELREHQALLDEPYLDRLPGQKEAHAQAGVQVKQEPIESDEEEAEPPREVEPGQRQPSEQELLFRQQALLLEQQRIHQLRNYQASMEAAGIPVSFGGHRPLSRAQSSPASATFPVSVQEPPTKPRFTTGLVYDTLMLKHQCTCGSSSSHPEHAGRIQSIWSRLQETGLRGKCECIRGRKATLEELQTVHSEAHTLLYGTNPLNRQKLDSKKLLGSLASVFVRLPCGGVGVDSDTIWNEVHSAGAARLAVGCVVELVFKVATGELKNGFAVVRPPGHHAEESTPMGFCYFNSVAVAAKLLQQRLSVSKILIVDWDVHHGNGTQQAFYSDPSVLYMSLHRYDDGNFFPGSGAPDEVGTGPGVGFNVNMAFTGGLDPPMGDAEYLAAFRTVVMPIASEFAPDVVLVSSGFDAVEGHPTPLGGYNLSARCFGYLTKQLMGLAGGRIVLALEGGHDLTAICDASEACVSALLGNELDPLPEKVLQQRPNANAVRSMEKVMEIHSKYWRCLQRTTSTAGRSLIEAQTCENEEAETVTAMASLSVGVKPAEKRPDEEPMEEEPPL
Method: as §1, §2

mouse HDAC6 = target: T3, mouse HDAC6 (Mus musculus, UniProt Q9Z2V5); test: In vitro HDAC inhibition activity, [3H]-acetylated histone substrate, HDAC6; format: biochemical
T3 construct: HA; made in house; host or cells: 293T cells (transient transfection, anti-HA immunoprecipitation, HA peptide elution)
T3 sequence (Q9Z2V5 1-1149): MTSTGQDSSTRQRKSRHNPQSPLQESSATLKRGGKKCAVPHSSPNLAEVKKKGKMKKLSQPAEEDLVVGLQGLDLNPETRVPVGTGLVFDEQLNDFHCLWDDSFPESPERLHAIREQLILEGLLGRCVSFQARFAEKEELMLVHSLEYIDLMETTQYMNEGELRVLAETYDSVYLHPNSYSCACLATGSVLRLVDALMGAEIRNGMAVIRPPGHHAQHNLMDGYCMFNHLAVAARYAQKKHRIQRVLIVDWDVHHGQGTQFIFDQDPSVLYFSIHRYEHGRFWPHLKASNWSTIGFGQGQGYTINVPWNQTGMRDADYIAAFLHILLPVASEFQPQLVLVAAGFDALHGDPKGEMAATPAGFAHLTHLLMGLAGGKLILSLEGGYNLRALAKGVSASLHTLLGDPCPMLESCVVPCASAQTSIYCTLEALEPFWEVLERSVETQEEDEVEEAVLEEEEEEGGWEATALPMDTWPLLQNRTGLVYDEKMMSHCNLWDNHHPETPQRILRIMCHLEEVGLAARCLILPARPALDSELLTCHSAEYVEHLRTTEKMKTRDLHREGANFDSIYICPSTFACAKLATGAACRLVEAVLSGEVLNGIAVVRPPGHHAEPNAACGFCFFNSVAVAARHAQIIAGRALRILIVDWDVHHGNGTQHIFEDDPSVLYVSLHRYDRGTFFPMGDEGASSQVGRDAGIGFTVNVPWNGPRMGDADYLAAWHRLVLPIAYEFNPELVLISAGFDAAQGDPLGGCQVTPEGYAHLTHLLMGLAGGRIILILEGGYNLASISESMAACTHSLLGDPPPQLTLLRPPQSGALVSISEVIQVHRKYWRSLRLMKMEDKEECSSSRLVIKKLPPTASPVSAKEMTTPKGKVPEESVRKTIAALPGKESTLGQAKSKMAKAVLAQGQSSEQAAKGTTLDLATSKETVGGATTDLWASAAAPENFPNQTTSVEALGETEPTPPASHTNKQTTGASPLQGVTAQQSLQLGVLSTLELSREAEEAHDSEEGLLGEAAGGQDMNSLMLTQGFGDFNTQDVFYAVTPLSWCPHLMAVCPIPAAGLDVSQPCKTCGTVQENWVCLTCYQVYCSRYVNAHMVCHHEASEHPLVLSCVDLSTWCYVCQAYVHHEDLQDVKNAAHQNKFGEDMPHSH
Method: as §1, §2

[2] = Table 1, X = H (coexisting with DTT)
[3] = Table 1, X = H (coexisting with DTT), 50% of maximum active value for TSA

Compound	IC50 (human HDAC1; [2]) [nM]	EC50 [1, 3] [µM]	IC50 (human HDAC4; [2]) [nM]	IC50 (mouse HDAC6; [2]) [nM]	IC50 (human HDAC1; Table 2, homodimer) [nM]	EC50 ([1]; Table 2, homodimer) [µM]	IC50 (human HDAC4; Table 2, homodimer) [nM]	IC50 (mouse HDAC6; Table 2, homodimer) [nM]	EC50 ([1]; Table 3, hybrid with DTT (/DTT)) [µM]	EC50 ([1]; Table 3, hybrid, without DTT) [µM]
CC[C@H](C)[C@@H]1NC(=O)[C@@H](Cc2ccc(OC)cc2)NC(=O)[C@H](CCCCCS)NC(=O)[C@@H]2CCCN2C1=O [SCOP 148] (cyclo([Gly((CH2)5SH)][dY](Me)IP))	81.4	6.72	17	> 500000	–	–	–	–	–	–
CC[C@H](C)[C@@H]1NC(=O)[C@@H](Cc2ccc(OC)cc2)NC(=O)[C@H](CCCCCS)NC(=O)[C@@H]2CCCCN2C1=O [SCOP 149] (cyclo([Gly((CH2)5SH)][dY](Me)I[Pip]))	2.37	0.596	5.22	44300	–	–	–	–	–	–
CC[C@H](C)[C@@H]1NC(=O)[C@@H](Cc2ccc(OC)cc2)NC(=O)[C@H](CCCCCS)NC(=O)[C@H]2CCCCN2C1=O [SCOP 150] (cyclo([Gly((CH2)5SH)][dY](Me)I[dPip]))	2.1	0.504	4.26	5560	–	–	–	–	–	–
CC[C@H](C)[C@@H]1NC(=O)[C@@H](Cc2ccc(OC)cc2)NC(=O)[C@H](CCCCS)NC(=O)[C@H]2CCCN2C1=O [SCOP 151]	932	> 100	7340	28500	–	–	–	–	–	–
CC[C@H](C)[C@@H]1NC(=O)[C@@H](Cc2ccc(OC)cc2)NC(=O)[C@H](CCCCCCS)NC(=O)[C@H]2CCCN2C1=O [SCOP 153]	9.13	9.85	91	8050	–	–	–	–	–	–
CC[C@H](C)[C@@H]1NC(=O)[C@@H](Cc2ccc(OC)cc2)NC(=O)[C@H](CCCCCCCS)NC(=O)[C@H]2CCCN2C1=O [SCOP 154]	38.1	31.4	99.2	2470	–	–	–	–	–	–
CC[C@H](C)[C@@H]1NC(=O)[C@@H](Cc2ccc(OC)cc2)NC(=O)[C@H](CCCCCSSCCCCC[C@@H]2NC(=O)[C@@H]3CCCN3C(=O)[C@H]([C@@H](C)CC)NC(=O)[C@@H](Cc3ccc(OC)cc3)NC2=O)NC(=O)[C@@H]2CCCN2C1=O [SCOP 296, cyclo(-L-Am7(-)-D-Tyr(Me)-L-Ile-L-Pro-)] (I: cyclo([hNle(7-SH)][dY](Me)IP) / II: cyclo([hNle(7-SH)][dY](Me)IP); disulfide I:1-II:1)	–	–	–	–	763	7.73	222	> 500000	–	–
CC[C@H](C)[C@@H]1NC(=O)[C@@H](Cc2ccc(OC)cc2)NC(=O)[C@H](CCCCCSSCCCCC[C@@H]2NC(=O)[C@@H]3CCCCN3C(=O)[C@H]([C@@H](C)CC)NC(=O)[C@@H](Cc3ccc(OC)cc3)NC2=O)NC(=O)[C@@H]2CCCCN2C1=O [SCOP 298, cyclo(-L-Am7(-)-D-Tyr(Me)-L-Ile-L-Pip-] (I: cyclo([hNle(7-SH)][dY](Me)I[Pip]) / II: cyclo([hNle(7-SH)][dY](Me)I[Pip]); disulfide I:1-II:1)	–	–	–	–	114	5.8	33.7	418000	–	–
CC[C@H](C)[C@@H]1NC(=O)[C@@H](Cc2ccc(OC)cc2)NC(=O)[C@H](CCCCCSSCCCCC[C@@H]2NC(=O)[C@H]3CCCCN3C(=O)[C@H]([C@@H](C)CC)NC(=O)[C@@H](Cc3ccc(OC)cc3)NC2=O)NC(=O)[C@H]2CCCCN2C1=O [SCOP 300, cyclo(-L-Am7(-)-D-Tyr(Me)-L-Ile-D-Pip-] (I: cyclo([hNle(7-SH)][dY](Me)I[dPip]) / II: cyclo([hNle(7-SH)][dY](Me)I[dPip]); disulfide I:1-II:1)	–	–	–	–	61.1	7.37	36.2	255000	–	–
CC[C@H](C)[C@@H]1NC(=O)[C@@H](Cc2ccc(OC)cc2)NC(=O)[C@H](CCCCSSCCCC[C@@H]2NC(=O)[C@H]3CCCN3C(=O)[C@H]([C@@H](C)CC)NC(=O)[C@@H](Cc3ccc(OC)cc3)NC2=O)NC(=O)[C@H]2CCCN2C1=O [SCOP 302, cyclo(-L-Am6(-)-D-Tyr(Me)-L-Ile-D-Pro-]	–	–	–	–	7200	> 100	> 500000	> 500000	–	–
CC[C@H](C)[C@@H]1NC(=O)[C@@H](Cc2ccc(OC)cc2)NC(=O)[C@H](CCCCCCSSCCCCCC[C@@H]2NC(=O)[C@H]3CCCN3C(=O)[C@H]([C@@H](C)CC)NC(=O)[C@@H](Cc3ccc(OC)cc3)NC2=O)NC(=O)[C@H]2CCCN2C1=O [SCOP 306, cyclo(-L-Am8(-)-D-Tyr(Me)-L-Ile-D-Pro-]	–	–	–	–	153	–	319	1.32e+06	–	–
CC[C@H](C)[C@@H]1NC(=O)[C@@H](Cc2ccc(OC)cc2)NC(=O)[C@H](CCCCCCCSSCCCCCCC[C@@H]2NC(=O)[C@H]3CCCN3C(=O)[C@H]([C@@H](C)CC)NC(=O)[C@@H](Cc3ccc(OC)cc3)NC2=O)NC(=O)[C@H]2CCCN2C1=O [SCOP 308, cyclo(-L-Am9(-)-D-Tyr(Me)-L-Ile-D-Pro-]	–	–	–	–	983	235	505	745000	–	–
cyclo(-L-Am7(S2Py)-D-Tyr(Me)-L-Ile-D-Pro-) [SCOP 401]	–	–	–	–	–	–	–	–	0.815	1.36

Reference: patent US7488712B2, “Histone deacetylase inhibitors and methods for producing the same” (Kyushu Institute of Technology, priority 2002, dated 2009)
